Experimental data: patent publication US20170002373A1, “METHOD OF PRODUCING LEAFY BIOMASS” (Imperial Innovations Limited, priority 2009, published 2017)

Legend:
[1] = test system: transplastomic cell suspensions from the tobacco GFP-6 line; test: Shoot/leafy biomass production from cell suspensions in temporary immersion bioreactor; format: cell-based, Nicotiana tabacum Petit Havana; conditions: 2-L temporary immersion bioreactor, MS media supplemented with 0.1 μM TDZ, after about six weeks
Procedure: Given that transplastomic gene expression seemed to be highest in leaf tissue we sought to develop a method for the rapid production of leaf tissue from callus/cell suspensions. […] In order to scale up the production capacity, transplastomic cell suspensions from the tobacco GFP-6 line were loaded into a 2-L bioreactor and temporally submerged in MS media supplemented with 0.1 μM TDZ. […] During the first 14 days, no growth could be detected and shoots only started to grow after this period. Possibly this lag period is related to the time needed for cells to redifferentiate from callus tissue to leafy tissue in tobacco in a similar manner to the observed switch between calli and meristematic tissues in Arabidopsis thaliana (Gordon et al, 2007).
Tobacco biomass was generated by placing about 7 grams of Nicotiana tabacum Petit Havana cell suspensions in a 2-L temporary immersion bioreactor (Ducos et al, 2007). Immersions were performed over a 40-day period with 1-L MS media supplemented with 0.1 μM Thidiazuron (TDZ, Sigma, UK) every three hours for 5 min. Additionally, the media contained 100 mg/L of spectinomycin to prevent contamination and to select for transplastomic cells. The TDZ (Thidiazuron) concentration in MS media was estimated to be optimal at 0.1 μM by researchers in Nestle, based on calli solid induction in Petri dishes (data not shown). […]

GFP-6 calli = test: Shoot induction from transplastomic calli on solid MS medium; format: cell-based, Nicotiana tabacum Petit Havana; conditions: data not shown; for shoot formation from calli: GFP-6 calli grown on solid MS medium with TDZ, shoots after 6 weeks

## O=C(Nc1ccccc1)Nc1cnns1 [Thidiazuron]
[1]
  shoot formation from cell suspensions: a large number of shoots were produced
GFP-6 calli
  shoot formation from calli: able to induce shoot formation
GFP-6 calli; listed as thidiazuron
  shoot formation from calli: induced the formation of shoots from calli
GFP-6 calli; based on calli solid induction in Petri dishes, estimated by researchers in Nestle
  optimal TDZ concentration in MS media: 0.1 µM
